Laboratory results from patent publication US20210317134A1, “UBIQUITIN-SPECIFIC-PROCESSING PROTEASE 7 (USP7) MODULATORS AND USES THEREOF” (RAPT THERAPEUTICS, INC., priority 2019, published 2021).
pIC50: −log10 of the molar value.

Biological target: USP7 (Homo sapiens, UniProt Q93009)
Test: USP7 inhibitory potency (Table 1)
Assay type: biochemical

USP7, sequence (Q93009 whole entry): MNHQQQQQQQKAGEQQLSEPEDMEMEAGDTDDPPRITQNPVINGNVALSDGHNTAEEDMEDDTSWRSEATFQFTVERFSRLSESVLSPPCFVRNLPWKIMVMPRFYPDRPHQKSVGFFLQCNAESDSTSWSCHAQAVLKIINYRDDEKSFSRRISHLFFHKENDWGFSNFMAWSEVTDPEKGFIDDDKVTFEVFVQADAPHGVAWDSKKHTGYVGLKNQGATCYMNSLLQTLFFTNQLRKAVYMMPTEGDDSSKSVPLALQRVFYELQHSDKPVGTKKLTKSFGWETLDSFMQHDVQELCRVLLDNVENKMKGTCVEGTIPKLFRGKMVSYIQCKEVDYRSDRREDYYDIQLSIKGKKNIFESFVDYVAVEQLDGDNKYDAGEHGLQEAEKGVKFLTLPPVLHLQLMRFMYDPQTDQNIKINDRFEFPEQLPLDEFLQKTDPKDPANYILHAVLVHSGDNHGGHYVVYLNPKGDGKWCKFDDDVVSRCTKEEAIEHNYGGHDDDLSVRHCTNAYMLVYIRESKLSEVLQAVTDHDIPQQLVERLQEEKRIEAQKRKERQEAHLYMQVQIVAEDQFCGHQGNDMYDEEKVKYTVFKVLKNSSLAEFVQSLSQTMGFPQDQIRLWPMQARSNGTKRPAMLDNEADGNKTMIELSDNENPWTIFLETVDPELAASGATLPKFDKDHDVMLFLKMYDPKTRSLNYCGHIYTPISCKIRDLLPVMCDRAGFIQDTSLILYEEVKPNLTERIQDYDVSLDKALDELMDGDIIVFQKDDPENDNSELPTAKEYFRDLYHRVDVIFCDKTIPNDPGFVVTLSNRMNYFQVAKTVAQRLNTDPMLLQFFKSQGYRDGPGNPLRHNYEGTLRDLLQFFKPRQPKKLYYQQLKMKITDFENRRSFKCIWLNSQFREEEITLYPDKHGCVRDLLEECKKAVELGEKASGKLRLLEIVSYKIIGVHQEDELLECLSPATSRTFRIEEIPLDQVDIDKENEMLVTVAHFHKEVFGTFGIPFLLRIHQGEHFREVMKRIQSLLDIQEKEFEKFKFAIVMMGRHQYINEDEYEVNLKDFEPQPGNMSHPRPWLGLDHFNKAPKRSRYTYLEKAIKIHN

| pIC50 | SMILES |
| --- | --- |
| > 6.00 | O=C([C@H]1Cc2cc(Cl)cc(-c3ccnc4cc(CCO)sc34)c2O1)N1CCNCC1 [(R)-(5-chloro-7-(2-(2-hydroxyethyl)thieno[3,2-b]pyridin-7-yl)-2,3-dihydrobenzofuran-2-yl)(piperazin-1-yl)methanone] |
| > 6.00 | O=C([C@H]1Cc2cc(Cl)cc(-c3ccnc4cc(CO)oc34)c2O1)N1CCNCC1 [(R)-(5-chloro-7-(2-(hydroxymethyl)furo[3,2-b]pyridin-7-yl)-2,3-dihydrobenzofuran-2-yl)(piperazin-1-yl)methanone] |
| 5.00 to 6.00 | O=C([C@H]1Cc2cc(Cl)cc(-c3ccnc4cc(CO)sc34)c2O1)N1CCn2nc(C(F)(F)F)nc2C1 [(R)-(5-chloro-7-(2-(hydroxymethyl)thieno[3,2-b]pyridin-7-yl)-2,3-dihydrobenzofuran-2-yl)(2-(trifluoromethyl)-5,6-dihydro-[1,2,4]triazolo[1,5-a]pyrazin-7(8H)-yl)methanone] |
| > 6.00 | CN(C)C1CN(C(=O)[C@H]2Cc3cc(Cl)cc(-c4ccnc5cc(CO)sc45)c3O2)C1 [(R)-(5-chloro-7-(2-(hydroxymethyl)thieno[3,2-b]pyridin-7-yl)-2,3-dihydrobenzofuran-2-yl)(3-(dimethylamino)azetidin-1-yl)methanone] |
| 5.00 to 6.00 | O=C([C@H]1Cc2cc(Cl)cc(-c3ccnc4cc(CO)sc34)c2O1)N1CCn2c(nnc2C(F)(F)F)C1 [(R)-(5-chloro-7-(2-(hydroxymethyl)thieno[3,2-b]pyridin-7-yl)-2,3-dihydrobenzofuran-2-yl)(3-(trifluoromethyl)-5,6-dihydro-[1,2,4]triazolo[4,3-a]pyrazin-7(8H)-yl)methanone] |
| 5.00 to 6.00 | Cc1nnc2n1CCN(C(=O)[C@H]1Cc3cc(Cl)cc(-c4ccnc5cc(CO)sc45)c3O1)C2 [(R)-(5-chloro-7-(2-(hydroxymethyl)thieno[3,2-b]pyridin-7-yl)-2,3-dihydrobenzofuran-2-yl)(3-methyl-5,6-dihydro-[1,2,4]triazolo[4,3-a]pyrazin-7(8H)-yl)methanone] |
| > 6.00 | CN(C)C1CCN(C(=O)[C@H]2Cc3cc(Cl)cc(-c4ccnc5cc(CO)sc45)c3O2)CC1 [(R)-(5-chloro-7-(2-(hydroxymethyl)thieno[3,2-b]pyridin-7-yl)-2,3-dihydrobenzofuran-2-yl)(4-(dimethylamino)piperidin-1-yl)methanone] |
| > 6.00 | CNC1CCN(C(=O)[C@H]2Cc3cc(Cl)cc(-c4ccnc5cc(CO)sc45)c3O2)CC1 [(R)-(5-chloro-7-(2-(hydroxymethyl)thieno[3,2-b]pyridin-7-yl)-2,3-dihydrobenzofuran-2-yl)(4-(methylamino)piperidin-1-yl)methanone] |
| > 6.00 | O=C([C@H]1Cc2cc(Cl)cc(-c3ccnc4cc(CO)sc34)c2O1)N1CCC(N2CCCC2)CC1 [(R)-(5-chloro-7-(2-(hydroxymethyl)thieno[3,2-b]pyridin-7-yl)-2,3-dihydrobenzofuran-2-yl)(4-(pyrrolidin-1-yl)piperidin-1-yl)methanone] |
| 5.00 to 6.00 | O=C([C@H]1Cc2cc(Cl)cc(-c3ccnc4cc(CO)sc34)c2O1)N1CCn2cnnc2C1 [(R)-(5-chloro-7-(2-(hydroxymethyl)thieno[3,2-b]pyridin-7-yl)-2,3-dihydrobenzofuran-2-yl)(5,6-dihydro-[1,2,4]triazolo[4,3-a]pyrazin-7(8H)-yl)methanone] |
| > 6.00 | O=C([C@H]1Cc2cc(Cl)cc(-c3ccnc4cc(CO)sc34)c2O1)N1CCn2ccnc2C1 [(R)-(5-chloro-7-(2-(hydroxymethyl)thieno[3,2-b]pyridin-7-yl)-2,3-dihydrobenzofuran-2-yl)(5,6-dihydroimidazo[1,2-a]pyrazin-7(8H)-yl)methanone] |
| > 6.00 | O=C([C@H]1Cc2cc(Cl)cc(-c3ccnc4cc(CO)sc34)c2O1)N1CCNCC1 [(R)-(5-chloro-7-(2-(hydroxymethyl)thieno[3,2-b]pyridin-7-yl)-2,3-dihydrobenzofuran-2-yl)(piperazin-1-yl)methanone] |

The next lines start with the compound.

| SMILES | pIC50 |
| --- | --- |
| Cn1nc2c(c1[C@H]1Cc3cc(Cl)cc(-c4ncnc5cc(CO)oc45)c3O1)CNCC2 [(R)-(4-(5-chloro-2-(2-methyl-4,5,6,7-tetrahydro-2H-pyrazolo [4,3-c]pyridin-3-yl)-2,3-dihydrobenzofuran-7-yl)furo[3,2-d]pyrimidin-6-yl)methanol] | > 6.00 |
| Cn1nc2c(c1[C@H]1Cc3cc(Cl)cc(-c4ncnc5cc(CO)sc45)c3O1)CNCC2 [(R)-(4-(5-chloro-2-(2-methyl-4,5,6,7-tetrahydro-2H-pyrazolo[4,3-c]pyridin-3-yl)-2,3-dihydrobenzofuran-7-yl)thieno[3,2-d]pyrimidin-6-yl)methanol] | > 6.00 |
| OCC1(CO)Cc2nccc(-c3cc(Cl)cc4c3O[C@@H](c3onc5c3CNCC5)C4)c2C1 [(R)-(4-(5-chloro-2-(4,5,6,7-tetrahydroisoxazolo[4,3-c]pyridin-3-yl)-2,3-dihydrobenzofuran-7-yl)-6,7-dihydro-5H-cyclopenta[b]pyridine-6,6-diyl)dimethanol] | 5.00 to 6.00 |
| OCc1cc2ncnc(-c3cc(Cl)cc4c3O[C@@H](c3onc5c3CNCC5)C4)c2o1 [(R)-(4-(5-chloro-2-(4,5,6,7-tetrahydroisoxazolo[4,3-c]pyridin-3-yl)-2,3-dihydrobenzofuran-7-yl)furo[3,2-d]pyrimidin-6-yl)methanol] | > 6.00 |
| NCc1cc(-c2cc(Cl)cc3c2O[C@@H](c2onc4c2CNCC4)C3)c2ccccc2n1 [(R)-(4-(5-chloro-2-(4,5,6,7-tetrahydroisoxazolo[4,3-c]pyridin-3-yl)-2,3-dihydrobenzofuran-7-yl)quinolin-2-yl)methanamine] | 5.00 to 6.00 |
| OCc1ccc2c(-c3cc(Cl)cc4c3O[C@@H](c3onc5c3CNCC5)C4)ccnc2c1 [(R)-(4-(5-chloro-2-(4,5,6,7-tetrahydroisoxazolo[4,3-c]pyridin-3-yl)-2,3-dihydrobenzofuran-7-yl)quinolin-7-yl)methanol] | > 6.00 |
| OCc1cc2ncnc(-c3cc(Cl)cc4c3O[C@@H](c3onc5c3CNCC5)C4)c2s1 [(R)-(4-(5-chloro-2-(4,5,6,7-tetrahydroisoxazolo[4,3-c]pyridin-3-yl)-2,3-dihydrobenzofuran-7-yl)thieno[3,2-d]pyrimidin-6-yl)methanol] | > 6.00 |
| O=C([C@H]1Cc2cc(Cl)cc(-c3ccnc4[nH]ccc34)c2O1)N1CCC(CCO)CC1 [(R)-(5-chloro-7-(1H-pyrrolo[2,3-b]pyridin-4-yl)-2,3-dihydrobenzofuran-2-yl)(4-(2-hydroxyethyl)piperidin-1-yl)methanone] | 4.52 to 5.00 |
| O=C([C@H]1Cc2cc(Cl)cc(-c3ccnc4[nH]ccc34)c2O1)N1CCNCC1 [(R)-(5-chloro-7-(1H-pyrrolo[2,3-b]pyridin-4-yl)-2,3-dihydrobenzofuran-2-yl)(piperazin-1-yl)methanone] | > 6.00 |
| O=C([C@H]1Cc2cc(Cl)cc(-c3ccnc4cc(C5(O)COC5)sc34)c2O1)N1CCNCC1 [(R)-(5-chloro-7-(2-(3-hydroxyoxetan-3-yl)thieno[3,2-b]pyridin-7-yl)-2,3-dihydrobenzofuran-2-yl)(piperazin-1-yl)methanone] | > 6.00 |
| O=C([C@H]1Cc2cc(Cl)cc(-c3ccnc4cc(CN5CCCCS5(=O)=O)sc34)c2O1)N1CCNCC1 [(R)-(5-chloro-7-(2-((1,1-dioxido-1,2-thiazinan-2-yl)methyl)thieno[3,2-b]pyridin-7-yl)-2,3-dihydrobenzofuran-2-yl)(piperazin-1-yl)methanone] | > 6.00 |
| O=C([C@H]1Cc2cc(Cl)cc(-c3ccnc4c3CCC4)c2O1)N1CCNCC1 [(R)-(5-chloro-7-(6,7-dihydro-5H-cyclopenta[b]pyridin-4-yl)-2,3-dihydrobenzofuran-2-yl)(piperazin-1-yl)methanone] | > 6.00 |
| Cc1cc2ncnc(-c3cc(Cl)cc4c3O[C@@H](C(=O)N3CCNCC3)C4)c2s1 [(R)-(5-chloro-7-(6-methylthieno[3,2-d]pyrimidin-4-yl)-2,3-dihydrobenzofuran-2-yl)(piperazin-1-yl)methanone] | > 6.00 |
| O=C([C@H]1Cc2cc(Cl)cc(-c3ccnc4occc34)c2O1)N1CCNCC1 [(R)-(5-chloro-7-(furo[2,3-b]pyridin-4-yl)-2,3-dihydrobenzofuran-2-yl)(piperazin-1-yl)methanone] | 5.00 to 6.00 |
| O=C([C@H]1Cc2cc(Cl)cc(-c3ccnc4ccoc34)c2O1)N1CCNCC1 [(R)-(5-chloro-7-(furo[3,2-b]pyridin-7-yl)-2,3-dihydrobenzofuran-2-yl)(piperazin-1-yl)methanone] | > 6.00 |
| O=C([C@H]1Cc2cc(Cl)cc(-c3ncnc4ccoc34)c2O1)N1CCNCC1 [(R)-(5-chloro-7-(furo[3,2-d]pyrimidin-4-yl)-2,3-dihydrobenzofuran-2-yl)(piperazin-1-yl)methanone] | 4.52 to 5.00 |
| O=C([C@H]1Cc2cc(Cl)cc(-c3ccnc4sccc34)c2O1)N1CCNCC1 [(R)-(5-chloro-7-(thieno[2,3-b]pyridin-4-yl)-2,3-dihydrobenzofuran-2-yl)(piperazin-1-yl)methanone] | 5.00 to 6.00 |
| CN(C)C1CN(C(=O)[C@H]2Cc3cc(Cl)cc(-c4ccnc5ccsc45)c3O2)C1 [(R)-(5-chloro-7-(thieno[3,2-b]pyridin-7-yl)-2,3-dihydrobenzofuran-2-yl)(3-(dimethylamino)azetidin-1-yl)methanone] | > 6.00 |
| CN(C)C1CCN(C(=O)[C@H]2Cc3cc(Cl)cc(-c4ccnc5ccsc45)c3O2)CC1 [(R)-(5-chloro-7-(thieno[3,2-b]pyridin-7-yl)-2,3-dihydrobenzofuran-2-yl)(4-(dimethylamino)piperidin-1-yl)methanone] | > 6.00 |
| CNC1CCN(C(=O)[C@H]2Cc3cc(Cl)cc(-c4ccnc5ccsc45)c3O2)CC1 [(R)-(5-chloro-7-(thieno[3,2-b]pyridin-7-yl)-2,3-dihydrobenzofuran-2-yl)(4-(methylamino)piperidin-1-yl)methanone] | > 6.00 |
| O=C([C@H]1Cc2cc(Cl)cc(-c3ccnc4ccsc34)c2O1)N1CCC(N2CCCC2)CC1 [(R)-(5-chloro-7-(thieno[3,2-b]pyridin-7-yl)-2,3-dihydrobenzofuran-2-yl)(4-(pyrrolidin-1-yl)piperidin-1-yl)methanone] | > 6.00 |
| O=C([C@H]1Cc2cc(Cl)cc(-c3ccnc4ccsc34)c2O1)N1CCNCC1 [(R)-(5-chloro-7-(thieno[3,2-b]pyridin-7-yl)-2,3-dihydrobenzofuran-2-yl)(piperazin-1-yl)methanone] | > 6.00 |
